In patent US7122328B2, “Gene involved in mineral deposition and uses thereof” (The Board of Trustees of the Leland Stanford Junior …, priority 2000, dated 2006):

System: COS cells
Assay: Intracellular/extracellular pyrophosphate levels in transfected COS cells
Type: cell-based
Conditions: overexpression in tissue culture cells
Source text: Several protocols have previously been developed for measuring inorganic pyrophosphate in biological samples and any number of these are used in the in vitro assay. Some measure pyrophosphate hydrolysis to orthophosphate by calorimetry (McCarty et al., J. Lab. Clin. Med., 78:216–29 (1971)), while others use labeled substrates that couple with pyrophosphate in enzymatic reactions to determine pyrophosphate levels radiometrically (Cheung and Suhadolnik, Anal. Biochem., 83:61–3 (1977); Caswell and Russell, Biochim. Biophys. Acta, 847:40–7 (1985)). In another type of protocols, inorganic pyrophosphate is subjected to a series of coupled enzymatic phosphorylation and reduction to yield NADPH which can be quantified flourimetrically (Lust and Seegmiller, Clin. Chim. Acta, 66:241–9 (1976)). Although each of these can be used in the assay, the latter protocol is used with described modifications as follows.
COS cells grown in DMEM supplemented with 10% fetal bovine serum, 2 mM GlutaMax (Gibco), 0.1 mM non-essential amino acids, 100 units/ml Penicillin G, and 100 μg/ml Streptomycin are harvested and ˜1–2×10^6 cells are plated on a 100 mm tissue culture dish and incubated overnight at 37° C., 5% CO2. […]

wild type ANK gene product: wild type ANK protein overexpressed in tissue culture cells; multiple-pass integral membrane protein of 492 amino acids
extracellular pyrophosphate levels: increase | intracellular pyrophosphate levels: dramatic reduction
